Test results published in ChEMBL document CHEMBL1124435, “Evaluation of glycolamide esters and various other esters of aspirin as true aspirin prodrugs” (J Med Chem, 1989).
≈ marks a conversion by molar mass, not a printed value.

Key:
[1] = Observed pseudo-first order rate constant
[2] = Observed second order rate constant
Homo sapiens [3] = organism: Homo sapiens; assay: Percentage of aspirin formed during hydrolysis in 10% human plasma at pH 7.4 at 37 degrees celsius
in vitro [4] = conditions: human, 10% human plasma
[5] = (§1) Observed first order rate constant
Homo sapiens [6] = organism: Homo sapiens; assay: Percentage of aspirin formed during hydrolysis in undiluted human plasma at pH 7.4 at 37 degrees celsius
[7] = Partition coefficient (logP); conditions: octanol/water
in vitro [8] = conditions: human, 10% human plasma, pH 7.4
Description: Michaelis-Menten constant(Km) for hydrolysis in 10% human plasma(pH 7.4) at 37 degrees celsius

[9] = as §1; assay type: ADME

CCCC(=O)OCOC(=O)c1ccccc1OC(C)=O
K obs [1]: 0.723 min⁻¹ | K2 [2]: 0.723 min⁻¹ | Aspirin formed (Homo sapiens [3]): 0% | solubility (physchem): 350 µg/mL (≈ 1.25 mM) | half-life (in vitro [4]): 1 min

CC(=O)Oc1ccccc1C(=O)OCC(=O)N(C(C)C)C(C)C
K1 [5]: 0.0092 min⁻¹ | K obs [1]: 0.0462 min⁻¹ | Aspirin formed (Homo sapiens [6]): 21% | K2 [2]: 0.037 min⁻¹ | logP [7]: 2.03 | Aspirin formed (Homo sapiens [3]): 20% | half-life (in vitro [4]): 15 min

CC(=O)Oc1ccccc1C(=O)OCC(=O)N(C1CCCCC1)C1CCCCC1
K obs [1]: 0.0335 min⁻¹ | K2 [2]: 0.0335 min⁻¹ | Aspirin formed (Homo sapiens [3]): 0% | half-life (in vitro [4]): 20.7 min

CC(=O)Oc1ccccc1C(=O)OCC(=O)NCC(N)=O
K obs [1]: 0.136 min⁻¹ | K2 [2]: 0.136 min⁻¹ | logP [7]: -0.43 | Aspirin formed (Homo sapiens [3]): 0% | half-life (in vitro [4]): 5.1 min

CCOC(=O)CNC(=O)COC(=O)c1ccccc1OC(C)=O
K obs [1]: 0.212 min⁻¹ | K2 [2]: 0.212 min⁻¹ | logP [7]: 0.99 | Aspirin formed (Homo sapiens [3]): 0% | solubility (physchem): 4320 µg/mL (≈ 13.4 mM) | half-life (in vitro [4]): 3.3 min

COC(=O)c1ccccc1OC(C)=O
K obs [1]: 0.214 min⁻¹ | K2 [2]: 0.214 min⁻¹ | logP [7]: 1.46 | Aspirin formed (Homo sapiens [3]): 0% | solubility (physchem): 2810 µg/mL (≈ 14.5 mM) | half-life (in vitro [4]): 3.2 min

CCOC(=O)CN(C)C(=O)COC(=O)c1ccccc1OC(C)=O
K obs [1]: 0.34 min⁻¹ | K2 [2]: 0.34 min⁻¹ | logP [7]: 1.67 | Aspirin formed (Homo sapiens [3]): 0% | solubility (physchem): 960 µg/mL (≈ 2.85 mM) | half-life (in vitro [4]): 2 min

CC(=O)Oc1ccccc1C(=O)Oc1ccccc1
K obs [1]: 0.53 min⁻¹ | K2 [2]: 0.53 min⁻¹ | logP [7]: 2.88 | Aspirin formed (Homo sapiens [3]): 0% | solubility (physchem): 20 µg/mL (≈ 0.078 mM) | half-life (in vitro [4]): 1.3 min

CC(=O)Oc1ccccc1C(=O)OCC(=O)N(C)C
K1 [5]: 0.105 min⁻¹ | K obs [1]: 0.209 min⁻¹ | Aspirin formed (Homo sapiens [6]): 49% | K2 [2]: 0.105 min⁻¹ | logP [7]: 0.38 | Aspirin formed (Homo sapiens [3]): 50% | Km (in vitro [8]): 196 µM | half-life (in vitro [4]): 3.3 min

CCOC(=O)COC(=O)c1ccccc1OC(C)=O
K obs [1]: 0.315 min⁻¹ | K2 [2]: 0.315 min⁻¹ | logP [7]: 1.67 | Aspirin formed (Homo sapiens [3]): 0% | half-life (in vitro [4]): 2.2 min

CC(=O)Oc1ccccc1C(=O)OCC(=O)N(C)CC(N)=O
K obs [1]: 0.0924 min⁻¹ | 10E2 K1 [9]: 3.42 min⁻¹ | K2 [2]: 0.0582 min⁻¹ | logP [7]: -0.46 | Aspirin formed (Homo sapiens [3]): 37% | Km (in vitro [8]): 380 µM | half-life (in vitro [4]): 7.5 min

CCNC(=O)COC(=O)c1ccccc1OC(C)=O
K obs [1]: 0.26 min⁻¹ | K2 [2]: 0.26 min⁻¹ | logP [7]: 0.9 | Aspirin formed (Homo sapiens [3]): 0% | solubility (physchem): 5520 µg/mL (≈ 20.8 mM) | half-life (in vitro [4]): 2.7 min

CC(=O)Oc1ccccc1C(=O)OCCN(C)C(C)=O
K obs [1]: 0.205 min⁻¹ | K2 [2]: 0.205 min⁻¹ | Aspirin formed (Homo sapiens [3]): 0% | half-life (in vitro [4]): 3.4 min

CC(=O)OCOC(=O)c1ccccc1OC(C)=O
K1 [5]: 0.115 min⁻¹ | K obs [1]: 0.395 min⁻¹ | Aspirin formed (Homo sapiens [6]): 28% | K2 [2]: 0.28 min⁻¹ | logP [7]: 1.42 | Aspirin formed (Homo sapiens [3]): 29% | solubility (physchem): 2430 µg/mL (≈ 9.63 mM) | half-life (in vitro [4]): 1.8 min

CC(=O)Oc1ccccc1C(=O)OC[S+](C)[O-] (configuration not stated)
K1 [5]: 0.0621 min⁻¹ | K obs [1]: 0.207 min⁻¹ | Aspirin formed (Homo sapiens [6]): 31% | K2 [2]: 0.145 min⁻¹ | logP [7]: 0.11 | Aspirin formed (Homo sapiens [3]): 30% | solubility (physchem): 4230 µg/mL (≈ 16.5 mM) | half-life (in vitro [4]): 3.3 min

CC(=O)Oc1ccccc1C(=O)OCC(=O)N(C)CCO
K1 [5]: 0.0699 min⁻¹ | K obs [1]: 0.184 min⁻¹ | Aspirin formed (Homo sapiens [6]): 40% | K2 [2]: 0.114 min⁻¹ | logP [7]: 0.06 | Aspirin formed (Homo sapiens [3]): 38% | half-life (in vitro [4]): 3.8 min

CSCOC(=O)c1ccccc1OC(C)=O
K obs [1]: 0.465 min⁻¹ | K2 [2]: 0.465 min⁻¹ | logP [7]: 1.94 | Aspirin formed (Homo sapiens [3]): 0% | solubility (physchem): 550 µg/mL (≈ 2.29 mM) | half-life (in vitro [4]): 1.5 min

CC(=O)Oc1ccccc1C(=O)OCCN(C)C.Cl
K1 [5]: 0.159 min⁻¹ | K obs [1]: 2.65 min⁻¹ | Aspirin formed (Homo sapiens [6]): 8% | K2 [2]: 2.49 min⁻¹ | Aspirin formed (Homo sapiens [3]): 6% | solubility (physchem): > 200000 µg/mL | Km (in vitro [8]): 49 µM | half-life (in vitro [4]): 0.26 min

CC(=O)Nc1ccc(OC(=O)c2ccccc2OC(C)=O)cc1 [BENORILATE]
K obs [1]: 0.487 min⁻¹ | K2 [2]: 0.487 min⁻¹ | logP [7]: 2.15 | Aspirin formed (Homo sapiens [3]): 0% | solubility (physchem): 20 µg/mL (≈ 0.0638 mM) | half-life (in vitro [4]): 1.4 min

CC(=O)Oc1ccccc1C(=O)Oc1ccccc1C(=O)O [DIPLOSALSALATE]
K obs [1]: 0.0094 min⁻¹ | K2 [2]: 0.0094 min⁻¹ | Aspirin formed (Homo sapiens [3]): 0% | half-life (in vitro [4]): 73.7 min
